Results from patent US20200046837A1, “UROGENITAL MEDICAL DEVICE FORMULATION BASED ON SUITABLE BIOCHEMICAL COMPOSITIONS FOR THE STABILIZATION OF THE ACIDITY AND THE REDOX STATE OF THE VAGINAL FLUID” (PROBIOSWISS AG, priority 2016, published 2020).
Where two headings read alike, the source gives them in different places.

How the values were obtained:
[1] = Redox potential and pH of media formulation before and after addition of test compounds; conditions: M17-type medium
Protocol: After measurement of redox potential and pH several compounds (nitrogen and sulphur sources) were added to this medium and their effect on pH and redox potential was determined.
Redox values were read after the signal was stable for at least 30 seconds. In addition the pH was measured using a standard pH Electrode connected to a MP225 pH Meter (Mettler Toledo).

Saccharomyces cerevisiae = conditions: cited from earlier work
Penicillium notatum = conditions: cited from earlier work
[2] = system: tested lactobacilli (gasseri, crispatus and jensenii)
E. coli = conditions: cited from earlier work
[3] = system: Lactobacillus gasseri KS 120.1; conditions: for OD: OD at 590 nm
Protocol: (§1) Growth was determined by measurement of optical density and pH at start, after 6 hours and after 24 hours.
(§2) All cultures were re-activated from cryopreserved (−80° C.) working stocks by cultivation on MRS agar for 1 to 3 days. A single colony from these plates was used to inoculate 5 ml of MRS broth. After incubation overnight, 10^7 cfu/ml were used to carry out the experiments.

[4] = system: Lactobacillus jensenii KS 119.1; conditions: for OD: OD at 590 nm
Protocol: as §1, §2

S. aureus = conditions: cited from earlier work
Aspergillus niger = conditions: cited from earlier work
K. pneumoniae = conditions: cited from earlier work
[5] = system: Lactobacillus crispatus KS 119.4; conditions: for OD: OD at 590 nm;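 on all read-outs here: growth in MRS broth cultures, followed via optical density and pH at the start, after 6 h and after 24 h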
[6] = system: Gram-positive bacteria such as Lactobacilli; conditions: cited from earlier work
bacterial vaginosis = conditions: women with a negative redox potential; cited from earlier work

## N[C@@H](CCC(=O)O)C(=O)O [glutamic acid, L-Glutamic acid]
[1]
  redox potential (Eh) of the medium after addition of the compound: ~300 mV

## N[C@@H](CS)C(=O)O [Cysteine]
[1]
  redox potential (Eh) of the medium after addition of the compound: −103 mV

## CS(C)(=O)=O [MSM, dimethylsulfone]
[1]
  effect of the added compound on the redox potential: high positive redox potential

## N[C@@H](CSSC[C@H](N)C(=O)O)C(=O)O [Cystine]
[1]
  effect of the added compound on the redox potential: high positive redox potential

## C/C=C/C=C/C(=O)[O-].[K+] [Potassium Sorbate, potassium sorbate]
Saccharomyces cerevisiae
  microbiostatic concentration for the inhibition of growth: 50 to 100 µg/mL
Penicillium notatum
  microbiostatic concentration for the inhibition of growth: 200 to 500 µg/mL
[2]
  concentration required for a slight inhibition: ≥ 0.5%
E. coli
  microbiostatic concentration for the inhibition of growth: 50 to 100 µg/mL
[3]; potassium sorbate 1.00%
  Interpretation: 1
[3]; potassium sorbate 1.00%, 0 h
  pH: 5.16
  OD: 0.54
[3]; potassium sorbate 1.00%, 6 h
  pH: 5
  OD: 0.78
[3]; potassium sorbate 1.00%, 24 h
  pH: 5.07
  OD: 0.97
[3]; potassium sorbate […]
  Interpretation: 1
[3]; potassium sorbate […], 0 h
  pH: 5.31
  OD: 0.53
[3]; potassium sorbate […], 6 h
  pH: 5.26
  OD: 0.73
[3]; potassium sorbate […], 24 h
  pH: 5.26
  OD: 0.72
[4]; potassium sorbate 0.10%
  Interpretation: 0
[4]; potassium sorbate 0.10%, 0 h
  pH: 4.5
  OD: 0.08
[4]; potassium sorbate 0.10%, 6 h
  pH: 4.5
  OD: 0.23
[4]; potassium sorbate 0.10%, 24 h
  pH: 4.5
  OD: 0.44
[4]; potassium sorbate 0.50%
  Interpretation: 1
[4]; potassium sorbate 0.50%, 0 h
  pH: 4.5
  OD: 0.07
[4]; potassium sorbate 0.50%, 6 h
  pH: 4.5
  OD: 0.11
[4]; potassium sorbate 0.50%, 24 h
  pH: 4.85
  OD: 0.124
[4]; potassium sorbate 1.00%
  Interpretation: 2
[4]; potassium sorbate 1.00%, 0 h
  pH: 5.03
  OD: 0.18
[4]; potassium sorbate 1.00%, 6 h
  pH: 5.01
  OD: 0.26
[4]; potassium sorbate 1.00%, 24 h
  pH: 5.09
  OD: 0.16
[4]; potassium sorbate […]
  Interpretation: 2
[4]; potassium sorbate […], 0 h
  pH: 5.32
  OD: 0.17
[4]; potassium sorbate […], 6 h
  pH: 5.18
  OD: 0.24
[4]; potassium sorbate […], 24 h
  pH: 5.25
  OD: 0.13
S. aureus
  microbiostatic concentration for the inhibition of growth: 50 to 100 µg/mL
Aspergillus niger
  microbiostatic concentration for the inhibition of growth: 200 to 500 µg/mL
K. pneumoniae
  microbiostatic concentration for the inhibition of growth: 50 to 100 µg/mL
[5]; potassium sorbate 0.01%
  Interpretation: 0
[5]; potassium sorbate 0.01%, 0 h
  pH: 4.71
  OD: 0.7
[5]; potassium sorbate 0.01%, 6 h
  pH: 4.42
  OD: 1.36
[5]; potassium sorbate 0.01%, 24 h
  pH: 4.35
  OD: 1.47
[5]; potassium sorbate 0.05%
  Interpretation: 0
[5]; potassium sorbate 0.05%, 0 h
  pH: 4.69
  OD: 0.6
[5]; potassium sorbate 0.05%, 6 h
  pH: 4.43
  OD: 1.16
[5]; potassium sorbate 0.05%, 24 h
  pH: 4.32
  OD: 1.24
[5]; potassium sorbate 0.10%
  Interpretation: 0
[5]; potassium sorbate 0.10%, 0 h
  pH: 4.7
  OD: 0.68
[5]; potassium sorbate 0.10%, 6 h
  pH: 4.48
  OD: 1.34
[5]; potassium sorbate 0.10%, 24 h
  pH: 4.44
  OD: 1.24
[5]; potassium sorbate 0.50%
  Interpretation: 0
[5]; potassium sorbate 0.50%, 0 h
  pH: 4.97
  OD: 0.67
[5]; potassium sorbate 0.50%, 6 h
  pH: 4.73
  OD: 1.24
[5]; potassium sorbate 0.50%, 24 h
  pH: 4.77
  OD: 1.15
[5]; potassium sorbate 1.00%
  Interpretation: 1
[5]; potassium sorbate 1.00%, 0 h
  pH: 5.8
  OD: 0.65
[5]; potassium sorbate 1.00%, 6 h
  pH: 5.01
  OD: 1.13
[5]; potassium sorbate 1.00%, 24 h
  pH: 5.08
  OD: 0.96
[5]; potassium sorbate […]
  Interpretation: 1
[5]; potassium sorbate […], 0 h
  pH: 5.32
  OD: 0.64
[5]; potassium sorbate […], 6 h
  pH: 5.2
  OD: 0.99
[5]; potassium sorbate […], 24 h
  pH: 5.26
  OD: 0.76

## Clc1ccccc1C(c1ccccc1)(c1ccccc1)n1ccnc1 [Clotrimazole]
[6]
  activity against Gram-positive bacteria: bactericidal activity

## Cc1ncc([N+](=O)[O-])n1CCO [metronidazole]
Bacterial vaginosis
  vaginal redox potential after a successful cure: returned to a positive one

## O=S(O)(O)=S [thiosulfate, Na-Thiosulfate]
[1]
  redox potential (Eh) of the medium after addition of the compound: −36 mV
